Assay results as given in patent US5346910A (priority 1992, dated 1994).

Tests used:
[1] = molecular target: muscarinic cholinergic receptor (rat brain cerebral cortex homogenate); assay type: binding; details: 0.25 nM 3H-QNB, 25° C., 120 minutes
[2] = molecular target: high affinity agonist conformation of the muscarinic cholinergic receptor (rat brain cerebral cortex homogenate); test: [3H]-Cis-methyldioxolane (3H-CD) binding assay (high affinity); details: 1.0 nM 3H-CD, 25° C., 120 minutes
[3] = tested on: aged monkey; details: aged monkeys; cited from earlier work
[4] = tested on: SDAT patients; details: compared to physostigmine; cited from earlier work

Row | Structure (SMILES) | Ki [1] [µM] | Ki [2] [µM] | performance in aged monkey model of SDAT [3] | improvement in SDAT patients [4]
1 | CC1=CC(=O)N(CC#CCN2CCCC2)C1=O [3-Methyl-1-[4-(1-pyrrolidinyl)-2-butynyl]-1H-pyrrole-2,5-dione] | 0.2 | 0.53 | – | –
2 | C[N+](C)(C)CC#CCN1C(=O)C=CC1=O [4-(2,5-Dihydro-2,5-dioxo-1H-pyrrol-1-yl)-N,N,N-trimethyl-2-butyne-1-aminium iodide] | 11 | 0.29 | – | –
3 | CC1=CC(=O)N(CC#CC[N+](C)(C)C)C1=O [4-(2,5-Dihydro-3-methyl-2,5-dioxo-1H-pyrrol-1-yl)-N,N,N-trimethyl-2-butyne-1-aminium iodide] | 2.3 | 0.56 | – | –
4 | O=C1CCCN1CC#CCN1CCCC1 [oxotremorine] | – | – | significant improvement in performance | –
5 | CC1=CC(=O)N(CC#CCN(C)C)C1=O [1-[4-(Dimethylamino)-2-butynyl]-3-methyl-1H-pyrrole-2,5-dione] | 1.4 | 3.4 | – | –
6 | CSC1CC(=O)N(CC#CCN2CCCC2)C1=O (centres unmarked) [3-(Methylthio)-1-[4-(1-pyrrolidinyl)-2-butynyl]-2,5-pyrrolidinedione] | 2.2 | 1.78 | – | –
7 | COC(=O)C1=CCCN(C)C1 [arecoline] | – | – | significant improvement in performance | more consistent improvement
8 | CSC1CC(=O)N(CC#CCN(C)C)C1=O (centres unmarked) [1-[4-(Dimethylamino)-2-butynyl]-3-(methylthio)-2,5-pyrrolidinedione] | > 100 | 1.6 | – | –
9 | CN(C)CC#CCN1C(=O)C=CC1=O [1-[4-(Dimethylamino)-2-butynyl]-1H-pyrrole-2,5-dione] | 1.74 | 1.48 | – | –
